Measured values taken from ChEMBL document CHEMBL1157672, “Detection of multiple network-based allosteric interactions between peptides and arrays of DNA binding sites” (Bioorg Med Chem, 2010).
Calls of active or inactive are those of the source. The rule behind the calls is not given here.

Tests used:
Assay type in all cases: nucleic-acid assay
[1] = tested on: Nucleic Acid; experiment: Binding affinity to 5'-AGAAAATAC-3' sequence of Escherichia coli 158-mer duplex pBR322 fragment at 10 to 2000 nM after 60 mins by DNase I footprinting
[2] = tested on: Nucleic Acid; experiment: Binding affinity to 5'-AATAC-3' sequence of Escherichia coli 158-mer duplex pBR322 fragment at 10 to 2000 nM after 60 mins by DNase I footprinting
[3] = tested on: Nucleic Acid; experiment: Binding affinity to 5'-TTTCTCCT-3' sequence of Escherichia coli 135-mer duplex pBR322 fragment at 50 to 2000 nM after 60 mins by DNase I footprinting
[4] = tested on: Nucleic Acid; experiment: Binding affinity to 5'-AGAAAATAC-3' sequence of Escherichia coli 158-mer duplex pBR322 fragment after 60 mins by DNase I footprinting
[5] = tested on: Nucleic Acid; experiment: Binding affinity to 5'-AATAC-3' sequence of Escherichia coli 158-mer duplex pBR322 fragment after 60 mins by DNase I footprinting
[6] = tested on: Nucleic Acid; experiment: Binding affinity to 5'-TTTCTCCT-3' sequence of Escherichia coli 135-mer duplex pBR322 fragment after 60 mins by DNase I footprinting
[7] = tested on: Nucleic Acid; experiment: Binding affinity to 5'-AAAAT-3' sequence of Escherichia coli 81-mer duplex pBR322 fragment after 60 mins by DNase I footprinting
[8] = tested on: Nucleic Acid; experiment: Binding affinity to 5'-TTTCT-3' sequence of Escherichia coli 81-mer duplex pBR322 fragment after 60 mins by DNase I footprinting
[9] = tested on: Nucleic Acid; experiment: Binding affinity to d(AAAA)-d(TTTT) sequence of Escherichia coli 158-mer duplex pBR322 fragment assessed as allosteric interaction after 60 mins by DNase I footprinting
[10] = tested on: Nucleic Acid; experiment: Binding affinity to d(AAA)-d(TTT) sequence of Escherichia coli 135-mer duplex pBR322 fragment assessed as allosteric interaction after 60 mins by DNase I footprinting
[11] = tested on: Nucleic Acid; experiment: Binding affinity to 11-mer duplex 3A-3T DNA at 0.2 to 7 uM after 60 mins by circular dichroism spectroscopy
[12] = tested on: Nucleic Acid; experiment: Binding affinity to 11-mer duplex 4A-4T DNA at 0.2 to 7 uM after 60 mins by circular dichroism spectroscopy
[13] = tested on: Nucleic Acid; experiment: Binding affinity to 11-mer duplex 4A-4T DNA minor groove at peptide to duplex ratio of 2:1 after 60 mins by circular dichroism spectroscopy
[14] = tested on: Nucleic Acid; experiment: Binding affinity to 11-mer duplex 3A-3T DNA minor groove at peptide to duplex ratio of 2:1 after 60 mins by circular dichroism spectroscopy
[15] = tested on: Nucleic Acid; experiment: Binding affinity to 5'-GAAAATA-3' sequence of Escherichia coli 158-mer duplex pBR322 fragment at 1 to 3000 nM after 60 mins by DNase I footprinting
[16] = tested on: Nucleic Acid; experiment: Binding affinity to 5'-AATACC-3' sequence of Escherichia coli 158-mer duplex pBR322 fragment at 1 to 3000 nM after 60 mins by DNase I footprinting
[17] = tested on: Nucleic Acid; experiment: Binding affinity to 5'-TTTTCTCCT-3' sequence of Escherichia coli 135-mer duplex pBR322 fragment at 1 to 3000 nM after 60 mins by DNase I footprinting
[18] = tested on: Nucleic Acid; experiment: Binding affinity to 5'-TT-3' sequence of Escherichia coli 135-mer duplex pBR322 fragment at 1 to 3000 nM after 60 mins by DNase I footprinting
[19] = tested on: Nucleic Acid; experiment: Binding affinity to 5'-GAAAATA-3' sequence of Escherichia coli 158-mer duplex pBR322 fragment after 60 mins by DNase I footprinting
[20] = tested on: Nucleic Acid; experiment: Binding affinity to 5'-AATACC-3' sequence of Escherichia coli 158-mer duplex pBR322 fragment after 60 mins by DNase I footprinting
[21] = tested on: Nucleic Acid; experiment: Binding affinity to 5'-TTTTCTCCT-3' sequence of Escherichia coli 135-mer duplex pBR322 fragment after 60 mins by DNase I footprinting
[22] = tested on: Nucleic Acid; experiment: Binding affinity to 5'-TT-3' sequence of Escherichia coli 135-mer duplex pBR322 fragment after 60 mins by DNase I footprinting
[23] = tested on: Nucleic Acid; experiment: Binding affinity to 5'-TTTTCTC-3' sequence of Escherichia coli 81-mer duplex pBR322 fragment after 60 mins by DNase I footprinting
[24] = tested on: Nucleic Acid; experiment: Binding affinity to 11-mer duplex 4A-4T DNA after 60 mins by circular dichroism spectroscopy
[25] = tested on: Nucleic Acid; experiment: Binding affinity to 11-mer duplex 4A-4T DNA at 0.2 uM after 60 mins by circular dichroism spectroscopy
[26] = tested on: Nucleic Acid; experiment: Binding affinity to 5'-TT-3' sequence of Escherichia coli 135-mer duplex pBR322 fragment at 50 to 2000 nM after 60 mins by DNase I footprinting
[27] = tested on: Nucleic Acid; experiment: Binding affinity to 5'-AATACCG-3' sequence of Escherichia coli 158-mer duplex pBR322 fragment at 1 to 3000 nM after 60 mins by DNase I footprinting
[28] = tested on: Nucleic Acid; experiment: Binding affinity to 5'-AGAAAATACCG-3' sequence of Escherichia coli 158-mer duplex pBR322 fragment at 1 to 3000 nM after 60 mins by DNase I footprinting
[29] = tested on: Nucleic Acid; experiment: Binding affinity to 5'-TTT-3' sequence of Escherichia coli 135-mer duplex pBR322 fragment at 12 nM after 60 mins by DNase I footprinting
[30] = tested on: Nucleic Acid; experiment: Binding affinity to 5'-TTTCTCC-3' sequence of Escherichia coli 135-mer duplex pBR322 fragment at 1 to 3000 nM after 60 mins by DNase I footprinting
[31] = tested on: Nucleic Acid; experiment: Binding affinity to 5'-AATACCG-3' sequence of Escherichia coli 158-mer duplex pBR322 fragment after 60 mins by DNase I footprinting
[32] = tested on: Nucleic Acid; experiment: Binding affinity to 5'-AGAAAATACCG-3' sequence of Escherichia coli 158-mer duplex pBR322 fragment after 60 mins by DNase I footprinting
[33] = tested on: Nucleic Acid; experiment: Binding affinity to 5'-TTT-3' sequence of Escherichia coli 135-mer duplex pBR322 fragment after 60 mins by DNase I footprinting
[34] = tested on: Nucleic Acid; experiment: Binding affinity to 5'-TTTCTCC-3' sequence of Escherichia coli 135-mer duplex pBR322 fragment after 60 mins by DNase I footprinting

In the case of `Cn1cc(NC(=O)c2cc(NC(=O)[C@@H](CCCCN)NC(=O)[C@H](CCCNC(=N)N)NC(=O)[C@@H]3C[C@@H](O)CN3C(=O)[C@@H](N)Cc3cnc[nH]3)cn2C)cc1C(=O)Nc1cc(C(=O)Nc2cc(C(=O)N[C@@H](Cc3cnc[nH]3)C(=O)N3C[C@H](O)C[C@H]3C(=O)N[C@@H](CCCNC(=N)N)C(=O)N[C@@H](CCCCN)C(N)=O)n(C)c2)n(C)c1`, the Activity [1] is reported as “Active”, the Activity [2] is reported as “Active” and the Activity [3] is reported as “Active”. For the same compound, the Ka [4] was 3.4 ×10⁶ /M, the Ka [5] was 2.5 ×10⁶ /M and the Ka [6] was 3.4 ×10⁶ /M. The Ka [7] was 1.4 ×10⁶ /M, the Ka [8] was 2.5 ×10⁶ /M and the Activity [9] was “Active”. The Activity [10] was “Active”, the Activity [11] was “Active” and the Activity [12] was “Active”. For the same compound, the Activity [13] was “Active” and the Activity [14] was “Active”.
For `Cn1cc(NC(=O)c2cc(NC(=O)[C@@H](CCCCN)NC(=O)[C@H](CCCNC(=N)N)NC(=O)[C@@H]3C[C@@H](O)CN3C(=O)[C@@H](N)Cc3cnc[nH]3)cn2C)cc1C(=O)Nc1cc(C(=O)N[C@@H](CCCCN)C(=O)N[C@@H](CCCNC(=N)N)C(N)=O)n(C)c1`, the Activity [15] was “Active”, the Activity [16] was “Active” and the Activity [17] was “Active”. The Activity [18] was “Active”, the Ka [19] was 3.8 ×10⁶ /M and the Ka [20] was 2.5 ×10⁶ /M. The Ka [21] was 2.2 ×10⁶ /M, the Ka [22] was 2.7 ×10⁶ /M and the Ka [7] was 2.1 ×10⁶ /M. The Ka [23] was 1.9 ×10⁶ /M, the Activity [9] was “Active” and the Activity [10] was “Active”. The Activity [24] was “Dose-dependent effect”, the Activity [25] was “Active” and the Activity [11] was “Active”. The Activity [13] was “Active”, the Activity [14] was “Active” and the Activity [26] was “inactive”.
With `Cn1cc(NC(=O)c2cc(NC(=O)[C@@H](CCCCN)NC(=O)[C@H](CCCNC(=N)N)NC(=O)[C@@H]3CCCN3C(=O)[C@@H](N)Cc3cnc[nH]3)cn2C)cc1C(=O)Nc1cc(C(=O)Nc2cc(C(=O)N[C@@H](Cc3cnc[nH]3)C(=O)N3CCC[C@H]3C(=O)N[C@@H](CCCNC(=N)N)C(=O)N[C@@H](CCCCN)C(N)=O)n(C)c2)n(C)c1` the Activity [27] was “Active”, the Activity [28] was “Active” and the Activity [29] was “Active”. For the same compound, the Activity [30] was “Active”, the Ka [31] was 6.7 ×10⁷ /M and the Ka [32] was 3.2 ×10⁶ /M. For the same compound, the Ka [33] was 3.7 ×10⁶ /M, the Ka [34] was 3.8 ×10⁶ /M and the Activity [9] was “Active”. For the same compound, the Activity [10] was “Active”.
